pKi: −log10 of the molar value.
biological target: Neurotensin receptor type 1 (Rattus norvegicus, UniProt P20789); assay: Tested for binding affinity against Neurotensin receptor
Sequence (P20789 whole entry): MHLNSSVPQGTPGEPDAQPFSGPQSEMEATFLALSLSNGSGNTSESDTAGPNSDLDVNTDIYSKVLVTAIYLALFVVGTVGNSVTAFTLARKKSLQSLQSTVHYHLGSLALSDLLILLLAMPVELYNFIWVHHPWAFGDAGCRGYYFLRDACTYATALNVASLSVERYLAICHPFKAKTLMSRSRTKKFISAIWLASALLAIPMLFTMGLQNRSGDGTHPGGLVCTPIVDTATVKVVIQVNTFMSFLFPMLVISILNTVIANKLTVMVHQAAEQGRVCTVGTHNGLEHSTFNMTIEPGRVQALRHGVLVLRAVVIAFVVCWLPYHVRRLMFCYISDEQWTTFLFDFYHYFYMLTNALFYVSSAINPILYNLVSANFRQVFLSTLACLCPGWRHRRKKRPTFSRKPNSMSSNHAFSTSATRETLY

SMILES | pKi
CC[C@H](C)[C@H](NC(=O)N(Cc1ccc(O)cc1)c1ccc(F)c(NC(=O)[C@H](CCCCN)NC(=O)OC(C)(C)C)c1)C(=O)N[C@@H](CC(C)C)C(=O)O | < 5.00
CC[C@H](C)[C@H](NC(=O)N(Cc1ccc(O)cc1)c1cccc(NC(=O)[C@H](CCCCN)NC(=O)OC(C)(C)C)c1F)C(=O)N[C@@H](CC(C)C)C(=O)O | 5.66
CC[C@H](C)[C@H](NC(=O)N(Cc1ccc(O)cc1)c1cccc(NC(=O)[C@H](CCCCN)NC(=O)OC(C)(C)C)c1)C(=O)N[C@@H](CC(C)C)C(=O)O | 5.90

These reach a higher pKi. Values come first.

pKi | SMILES
6.14 | CC[C@H](C)[C@H](NC(=O)N(Cc1ccc(O)cc1)c1cccc(NC[C@H](CCCCN)NC(=O)OC(C)(C)C)c1)C(=O)N[C@@H](CC(C)C)C(=O)O
7.54 | CC[C@H](C)[C@H](NC(=O)[C@H](Cc1ccc(O)cc1)c1cccc(NC(=O)[C@H](CCCCN)NC(=O)OC(C)(C)C)c1)C(=O)N[C@@H](CC(C)C)C(=O)O
6.05 | CC[C@H](C)[C@H](NC(=O)N(Cc1ccc(F)cc1)c1cccc(NC(=O)[C@H](CCCCN)NC(=O)OC(C)(C)C)c1)C(=O)N[C@@H](CC(C)C)C(=O)O

Source: ChEMBL document CHEMBL1152097, “Preparation of neurotensin analogs with a novel pro-tyr replacement” (Bioorg Med Chem Lett, 1995)
